The numbers were not newly measured in patent US8853170B2, “Compositions comprising sugar-cysteine products” (Max International, LLC, priority 2010, dated 2014), which cites them from elsewhere.

The subject of one data set is humans. The settings on record: ribose administered directly to humans.
In the next data set the test system is healthy humans. The following applies: orally 8-10 g per day by an adult.
Another data set concerns ATP levels. The following applies: dogs subjected to ischemia, about 3 g/day for at least 5 days.
Data set [1] has as its system mice exposed to cyclophosphamide. The settings on record: 8 mmol/kg.
Data set [2] concerns acetaminophen hepatic and renal toxicity. The settings on record: mice, doses of 2 g/kg.
The subject of data set [3] is irradiation-induced bowel injury. The following applies: mice, doses of 1 g/kg.
Another data set deals with glutathione levels. The settings on record: mice, 8 mmol/kg i.p.

For `O=C[C@H](O)[C@H](O)[C@H](O)CO` [ribose], the toxicity entry in the data set with humans is recorded as “essentially non-toxic over wide dosage ranges”. Moreover, in the data set on healthy humans, the exercise capacity entry is listed as “increase exercise capacity”. Further, in the data set on ATP levels, the ATP levels entry is “effectively restored and maintained ATP levels”.
For the molecule `O=C(O)[C@@H]1CSC(C(O)C(O)C(O)CO)N1` (stereo partly drawn) [RibCys, 2(R,S)-D-ribo-(1′,2′,3′,4′-tetrahydroxybutyl)thiazolidine-4(R)-carboxylic acid], the “delivery of protective amounts of cysteine” value in data set [1] is recorded as “deliver effective protective amounts of cysteine”. Further, the “protection against acetaminophen hepatic and renal toxicity” value in data set [2] was “protect mice against acetaminophen hepatic and renal toxicity”. Also, in data set [3], the “protection against irradiation-induced bowel injury” value is “protect mice against irradiation-induced bowel injury”. Also, the “increased glutathione levels, heart” value with glutathione levels (heart) is 1.5 times. The “increased glutathione levels, muscle tissue” value with glutathione levels (muscle tissue) is 2.5 times.
